Source: ChEMBL document CHEMBL3727349, “Thieno- and furo - pyrimidines and pyridines, useful as potassium channel inhibitors” (2013)

target: T1, Kir3.1/Kir3.4 (Rattus norvegicus, UniProt P48548+P63251); test: Inhibition of rat Kir3.1/Kir3.4 expressed in HEK293 cells assessed as reduction in depolarizing voltage step-induced recombinant G-protein activated inward rectifier current by whole cell patch clamp assay; assay type: cell-based
T1 sequence (P63251 whole entry): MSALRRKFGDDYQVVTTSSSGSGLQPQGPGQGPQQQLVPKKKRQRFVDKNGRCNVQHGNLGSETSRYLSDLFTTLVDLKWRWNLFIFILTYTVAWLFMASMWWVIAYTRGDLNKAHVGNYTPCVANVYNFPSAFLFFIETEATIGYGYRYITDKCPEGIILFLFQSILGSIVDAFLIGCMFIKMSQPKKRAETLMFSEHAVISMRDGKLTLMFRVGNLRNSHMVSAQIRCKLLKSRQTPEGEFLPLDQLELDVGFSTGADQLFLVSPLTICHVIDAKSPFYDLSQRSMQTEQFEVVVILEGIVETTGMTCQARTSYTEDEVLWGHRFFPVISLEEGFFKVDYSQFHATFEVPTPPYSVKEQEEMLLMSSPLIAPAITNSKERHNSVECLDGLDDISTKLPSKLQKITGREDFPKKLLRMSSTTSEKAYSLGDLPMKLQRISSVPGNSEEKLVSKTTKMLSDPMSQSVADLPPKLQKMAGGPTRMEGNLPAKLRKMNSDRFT
T1 sequence (P48548 whole entry): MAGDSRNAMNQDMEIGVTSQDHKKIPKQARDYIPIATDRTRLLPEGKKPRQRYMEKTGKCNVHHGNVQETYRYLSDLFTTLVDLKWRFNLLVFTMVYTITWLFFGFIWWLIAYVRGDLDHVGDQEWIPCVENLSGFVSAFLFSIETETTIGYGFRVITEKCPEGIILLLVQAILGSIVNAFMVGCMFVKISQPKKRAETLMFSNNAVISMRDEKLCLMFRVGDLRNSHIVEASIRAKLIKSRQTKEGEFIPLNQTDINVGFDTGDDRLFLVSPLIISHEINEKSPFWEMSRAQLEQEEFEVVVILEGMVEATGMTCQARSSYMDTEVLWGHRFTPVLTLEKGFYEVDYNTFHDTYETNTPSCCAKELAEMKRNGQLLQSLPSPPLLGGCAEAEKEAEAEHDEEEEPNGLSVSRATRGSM

Compound	IC50
CN(C)CCCOCC1CCN(c2ncnc3scc(-c4ccccc4)c23)CC1	< 500 nM
Cc1sc2ncnc(N3CCC(COCCC4CCCN4C)CC3)c2c1C (configuration not stated)	< 500 nM
CC(=O)NC1CCN(CCOCC2CCN(c3ncnc4scc(-c5ccccc5)c34)CC2)C1 (configuration not stated)	< 500 nM
CN1CCCCC1CCOCC1CCN(c2ncnc3scc(-c4ccccc4)c23)CC1 (configuration not stated)	< 500 nM
c1ccc(-c2csc3ncnc(N4CCC(COCCN5CCOCC5)CC4)c23)cc1	< 500 nM
NC(=O)[C@@H]1CCCN1CCOCC1C2CN(c3ncnc4scc(-c5ccccc5)c34)CC12 (some centres not stated)	< 500 nM
NC(=O)C1CCCN1CCOCC1CCN(c2ncnc3scc(-c4ccccc4)c23)CC1 (configuration not stated)	< 500 nM
c1ccc(-c2csc3ncnc(N4CC5C(COCCN6CCCC6)C5C4)c23)cc1 (configuration not stated)	< 500 nM
CCc1c(C)sc2ncnc(N3CCC(COCCN4CCCC4)CC3)c12	< 500 nM
CN1CCCC1CCOCC1CCN(c2ncnc3scc(-c4ccccc4)c23)CC1 (configuration not stated)	< 500 nM
F[C@H]1CCN(CCOCC2CCN(c3ncnc4scc(-c5ccccc5)c34)CC2)C1	< 500 nM
CCc1c(C)sc2ncnc(N3CCC(COCCC4CCCCN4C)CC3)c12 (configuration not stated)	< 500 nM
COc1ncccc1-c1csc2ncnc(N3CCC(COCCN4CCCC4)CC3)c12	< 500 nM
FC1(F)CCN(CCOCC2CCN(c3ncnc4scc(-c5ccccc5)c34)CC2)C1	< 500 nM
F[C@@H]1CCN(CCOCC2C3CN(c4ncnc5scc(-c6ccccc6)c45)CC23)C1 (some centres not stated)	< 500 nM
NC(=O)C1CCN(CCOCC2CCN(c3ncnc4scc(-c5ccccc5)c34)CC2)C1 (configuration not stated)	< 500 nM
NC(=O)[C@H]1CCCN1CCOCC1C2CN(c3ncnc4scc(-c5ccccc5)c34)CC12 (some centres not stated)	< 500 nM
CN1CCC(OCC2CCN(c3ncnc4scc(-c5ccccc5)c34)CC2)C1 (configuration not stated)	< 500 nM
c1ccc(-c2csc3ncnc(N4CCC(COCCN5CC6CC5CO6)CC4)c23)cc1 (configuration not stated)	< 500 nM
CN(C)CCOCC1CCN(c2ncnc3scc(-c4ccccc4)c23)CC1	< 500 nM
CC(C)c1cc2c(N3CCC(COCCN4CCOCC4)CC3)ncnc2s1	≤ 3000 nM
CN1CCCC1CCOCC1C2CN(c3ncnc4scc(-c5ccccc5)c34)CC12 (configuration not stated)	< 500 nM
Fc1ccc(-c2csc3ncnc(N4CCC(COCCN5CCCC5)CC4)c23)cc1	< 500 nM
CN1CCC(OCC2CCN(c3ncnc4scc(-c5ccccc5)c34)CC2)CC1	< 500 nM
CN1CCCC1CCOCC1CCN(c2ncnc3scc(-c4cccc(F)c4)c23)CC1 (configuration not stated)	< 500 nM
Fc1cccc(-c2csc3ncnc(N4CCC(COCCN5CCCC5)CC4)c23)c1	< 500 nM
F[C@H]1CCN(CCOCC2C3CN(c4ncnc5scc(-c6ccccc6)c45)CC23)C1 (some centres not stated)	< 500 nM
